How the values were obtained:
Type in all cases: ADME, organism-based
[1] = Metabolic stability in urine of mouse at 5 +/- 2.3 MBq/kg, iv measured until 30 to 60 mins by HPLC analysis in presence of MATE1 inhibitor pyrimethamine; conditions: in vivo
Liver [2] = experiment: Drug uptake in liver of ddY mouse at 127 +/- 35 MBq/kg, iv measured up to 6 to 7 mins by microPET image analysis in presence of MATE1 inhibitor pyrimethamine; conditions: in vivo
Liver [3] = experiment: Drug uptake in liver of ddY mouse at 127 +/- 35 MBq/kg, iv after 2 mins by microPET image analysis; conditions: in vivo
[4] = Drug uptake in urinary bladder of ddY mouse at 127 +/- 35 MBq/kg, iv measured up to 4.5 mins by microPET image analysis in presence of MATE1 inhibitor pyrimethamine; conditions: in vivo, 0.075 h
Mus musculus [5] = experiment: Biodistribution in remaining body parts of ddY mouse at 5.6 +/- 2.1 MBq, iv measured per gram of tissue at 45 mins by gamma-ray counting analysis; conditions: in vivo, 0.75 h
Mus musculus [6] = experiment: Biodistribution in remaining body parts of ddY mouse at 5.6 +/- 2.1 MBq, iv measured per gram of tissue at 30 mins by gamma-ray counting analysis; conditions: in vivo, 0.5 h
Mus musculus [7] = experiment: Biodistribution in urinary bladder of ddY mouse at 14.6 +/- 2.1 MBq, iv measured per gram of tissue at 27.5 mins by PET image analysis; conditions: in vivo
Kidney = experiment: Biodistribution in kidney of ddY mouse at 14.6 +/- 2.1 MBq, iv measured per gram of tissue at 5 mins by PET image analysis; conditions: in vivo
Pancreas [8] = experiment: Biodistribution in pancreas of ddY mouse at 5.6 +/- 2.1 MBq, iv measured per gram of tissue at 90 mins by gamma-ray counting analysis; conditions: in vivo, 1.5 h
Mus musculus [9] = experiment: Biodistribution in urinary bladder/urine of ddY mouse at 5.6 +/- 2.1 MBq, iv measured per gram of tissue at 35 mins by gamma-ray counting analysis; conditions: in vivo
Mus musculus [10] = experiment: Biodistribution in small intestine wall of ddY mouse at 5.6 +/- 2.1 MBq, iv measured per gram of tissue at 35 mins by gamma-ray counting analysis; conditions: in vivo
Spleen [11] = experiment: Biodistribution in spleen of ddY mouse at 5.6 +/- 2.1 MBq, iv measured per gram of tissue at 35 mins by gamma-ray counting analysis; conditions: in vivo
Liver [12] = experiment: Biodistribution in liver of ddY mouse at 5.6 +/- 2.1 MBq, iv measured per gram of tissue at 35 mins by gamma-ray counting analysis; conditions: in vivo
Mus musculus [13] = experiment: Biodistribution in urinary bladder/urine of ddY mouse at 5.6 +/- 2.1 MBq, iv measured per gram of tissue at 30 mins by gamma-ray counting analysis; conditions: in vivo, 0.5 h
Pancreas [14] = experiment: Biodistribution in pancreas of ddY mouse at 5.6 +/- 2.1 MBq, iv measured per gram of tissue at 30 mins by gamma-ray counting analysis; conditions: in vivo, 0.5 h
Mus musculus [15] = experiment: Biodistribution in small intestine wall of ddY mouse at 5.6 +/- 2.1 MBq, iv measured per gram of tissue at 30 mins by gamma-ray counting analysis; conditions: in vivo, 0.5 h
Spleen [16] = experiment: Biodistribution in spleen of ddY mouse at 5.6 +/- 2.1 MBq, iv measured per gram of tissue at 30 mins by gamma-ray counting analysis; conditions: in vivo, 0.5 h
Mus musculus [17] = experiment: Biodistribution in large intestine wall of ddY mouse at 5.6 +/- 2.1 MBq, iv measured per gram of tissue at 15 mins by gamma-ray counting analysis; conditions: in vivo, 0.25 h

Stability [1]: Stable
Drug uptake (Liver [2]): Active
Drug uptake (Liver [3]): Not Active
Drug uptake [4]: Active
Drug uptake (Mus musculus [5]): 17.28 %ID
Drug uptake (Mus musculus [6]): 18.728 %ID
Drug uptake (Mus musculus [7]): 66.041 %ID
Drug uptake (Kidney): 6.576 %ID
Drug uptake (Pancreas [8]): 0.339 %ID
Drug uptake (Mus musculus [9]): 74.695 %ID
Drug uptake (Mus musculus [10]): 2.06 %ID
Drug uptake (Spleen [11]): 0.145 %ID
Drug uptake (Liver [12]): 1.478 %ID
Drug uptake (Mus musculus [13]): 73.314 %ID
Drug uptake (Pancreas [14]): 0.405 %ID
Drug uptake (Mus musculus [15]): 3.165 %ID
Drug uptake (Spleen [16]): 0.162 %ID
Drug uptake (Mus musculus [17]): 0.659 %ID
Compound: CN([11CH3])C(=N)NC(=N)N

Source: ChEMBL document CHEMBL3091293, “The synthesis and biodistribution of [(11)C]metformin as a PET probe to study hepatobiliary transport mediated by the multi-drug and toxin extrusion transporter 1 (MATE1) in vivo” (Bioorg Med Chem, 2013)
